What all share (assay type): in vivo
One experiment relates to Musca domestica. Put plainly: Test Example 2: filter paper/sucrose bait test against housefly imagoes. To be noted: read-out: rate of dead pests. The protocol: On the bottom of a polyethylene cup having a diameter of 5.5 cm, a filter paper having the same diameter was laid, and 0.7 ml of the above test solution was added dropwise on the filter paper, followed by putting 30 mg of sucrose on it uniformly as a bait. Ten female Musca domestica imagoes were set free in the polyethylene cup and covered it with a lid. After 24 hours, the number of surviving and dead Musca domestica was examined and the rate of dead pests was calculated.

Another experiment deals with Blattella germanica. Briefly: Test Example 3: filter paper/sucrose bait test against German cockroach imagoes. To be noted: Blattella germanica, 144 h, read-out: rate of dead pests. The protocol:
On the bottom of a polyethylene cup having a diameter of 5.5 cm, a filter paper having the same diameter was laid, and 0.7 ml of the above test solution was added dropwise on the filter paper, followed by putting 30 mg of sucrose on it uniformly as a bait. Two male Blattella germanica imagoes were set free in the polyethylene cup and covered it with a lid. After 6 days, the number of surviving and dead Blattella germanica was examined and the rate of dead pests was calculated.

The next experiment has as its system Culex pipiens pallens. Briefly: Test Example 4: mosquito larvae test in treated water. To be noted: 24 h, read-out: rate of dead pests. The method, then: 0.7 ml of above test solution was added to 100 ml of ion exchanged water (active ingredient concentration: 3.5 ppm). Twenty last-instar larvae of Culex pipiens pallens were set free in the solution. After one day, the number of surviving and dead Culex pipiens pallens was examined and the rate of dead pests was calculated.

The mark [1] stands for this setting: 500 ppm test solution, 0.7 ml on filter paper with 30 mg sucrose, ten female imagoes, after 24 hours.
Setting [2] is: 500 ppm test solution, 0.7 ml on filter paper with 30 mg sucrose, two male imagoes, after 6 days.
The mark [3] stands for this setting: active ingredient concentration 3.5 ppm in water, twenty last-instar larvae, after one day.

Each structure is given as a SMILES string. Read-outs that look alike come from different tables or passages of the source.

Turning to `CNC(=O)C(F)(CCC(F)(F)C(F)(F)F)S(=O)(=O)CCC(F)(F)F` (stereo not drawn) [(69)], the pest or weed control at 500 ppm in the experiment with Musca domestica (setting [1]) was at least 70%; with Blattella germanica (setting [2]) it was 100%. Besides, the pest or weed control at 3.5 ppm in the experiment on Culex pipiens pallens (setting [3]) is at least 90%.
Turning to `CC(CCC(F)(F)C(F)(F)F)(SCCC(F)(F)F)C(N)=O` (stereo not drawn) [(70)], the pest or weed control at 500 ppm in the experiment with Musca domestica (setting [1]) was at least 70%; in the experiment on Blattella germanica (setting [2]), 100%. The pest or weed control at 3.5 ppm with Culex pipiens pallens (setting [3]) was at least 90%.
Regarding `COC(=O)C(C)(CCC(F)(F)C(F)(F)F)[S+]([O-])CCC(F)(F)F` (stereo not drawn) [(71)], the pest or weed control at 500 ppm in the experiment on Musca domestica (setting [1]) was at least 70%; in the experiment on Blattella germanica (setting [2]) it was 100%. The pest or weed control at 3.5 ppm in the experiment with Culex pipiens pallens (setting [3]) is at least 90%.
For `COC(=O)C(F)(CCC(F)(F)C(F)(F)F)S(=O)(=O)CCC(F)(F)C(F)(F)F` (stereo not drawn) [(72)] the same measures were at least 70%, 100% and at least 90%.
On the same counts, the results for `NC(=O)C(F)(CCC(F)(F)C(F)(F)F)S(=O)(=O)CCC(F)(F)C(F)(F)F` (stereo not drawn) [(73)] are at least 70%, 100% and at least 90%.
On the same counts, the results for `CN(C)C(=O)C(F)(CCC(F)(F)C(F)(F)F)S(=O)(=O)CCC(F)(F)F` (stereo not drawn) [(74)] are at least 70%, 100% and at least 90%.
For `CNC(=O)C(Cl)(CCC(F)(F)C(F)(F)F)S(=O)(=O)CCC(F)(F)F` (stereo not drawn) [(75)], the pest or weed control at 500 ppm was at least 70% with Musca domestica (setting [1]) and 100% in the experiment on Blattella germanica (setting [2]). Further, the pest or weed control at 3.5 ppm in the experiment with Culex pipiens pallens (setting [3]) is at least 90%.
On to `COC(=O)C(Cl)(CCCC(F)(F)F)S(=O)(=O)CCC(F)(F)F` (stereo not drawn) [(79)], for which the pest or weed control at 500 ppm in the experiment with Musca domestica (setting [1]) is at least 70%; in the experiment on Blattella germanica (setting [2]), 100%. For the same compound, the pest or weed control at 3.5 ppm in the experiment on Culex pipiens pallens (setting [3]) was at least 90%.
On the same counts, the results for `NC(=O)C(Cl)(CCCC(F)(F)F)S(=O)(=O)CCC(F)(F)F` (stereo not drawn) [(80)] are at least 70%, 100% and at least 90%.
On the same counts, the results for `NC(=O)C(Cl)(CCC(F)(F)F)S(=O)(=O)CCC(F)(F)F` (stereo not drawn) [(81)] are at least 70%, 100% and at least 90%.
On to `NC(=O)C(Cl)(CCC(F)(F)C(F)(F)C(F)(F)F)S(=O)(=O)CCC(F)(F)F` (stereo not drawn) [(84)], for which the values for the pest or weed control at 500 ppm with Musca domestica (24 h) and in the experiment on Blattella germanica were at least 70% and 100%, respectively. The pest or weed control at 3.5 ppm with Culex pipiens pallens is at least 90%.
In the case of `COC(=O)C(Cl)(CCC(F)(F)C(F)(F)C(F)(F)C(F)(F)F)S(=O)(=O)CCC(F)(F)F` (stereo not drawn) [(86)], the pest or weed control at 500 ppm is at least 70% in the experiment with Musca domestica (24 h) and 100% in the experiment with Blattella germanica. Further, in the experiment with Culex pipiens pallens, the pest or weed control at 3.5 ppm is at least 90%.
On to `NC(=O)C(Cl)(CCC(F)(F)C(F)(F)C(F)(F)C(F)(F)F)S(=O)(=O)CCC(F)(F)F` (stereo not drawn) [(87)], for which the pest or weed control at 500 ppm is at least 70% with Musca domestica (24 h) and 100% with Blattella germanica. Moreover, the pest or weed control at 3.5 ppm in the experiment on Culex pipiens pallens was at least 90%.
`COC(=O)C(Cl)(CCC(F)(F)C(F)(F)F)S(=O)(=O)CCC(F)(F)C(F)(F)F` (stereo not drawn) [(88)]: the results for the pest or weed control at 500 ppm in the experiment on Musca domestica (setting [1]) and with Blattella germanica (setting [2]) were at least 70% and 100%, respectively. Moreover, in the experiment with Culex pipiens pallens (setting [3]), the pest or weed control at 3.5 ppm is at least 90%.
For `NC(=O)C(Cl)(CCC(F)(F)C(F)(F)F)S(=O)(=O)CCC(F)(F)C(F)(F)F` (stereo not drawn) [(89)] the same measures were at least 70%, 100% and at least 90%.
For `COC(=O)C(F)(CCC(F)(F)C(F)(F)C(F)(F)F)S(=O)(=O)CCC(F)(F)F` (stereo not drawn) [(90)], the figures for the pest or weed control at 500 ppm in the experiment on Musca domestica (24 h) and in the experiment on Blattella germanica were at least 70% and 100%, respectively. Further, the pest or weed control at 3.5 ppm with Culex pipiens pallens was at least 90%.
With `NC(=O)C(F)(CCC(F)(F)C(F)(F)C(F)(F)F)S(=O)(=O)CCC(F)(F)F` (stereo not drawn) [(91)], the pest or weed control at 500 ppm was at least 70% in the experiment on Musca domestica (24 h) and 100% in the experiment on Blattella germanica. The pest or weed control at 3.5 ppm in the experiment on Culex pipiens pallens was at least 90%.
Consider `COC(=O)C(Cl)(CCC(F)(F)F)S(=O)(=O)CCC(F)(F)C(F)(F)F` (stereo not drawn) [(93)], for which the pest or weed control at 500 ppm was at least 70% with Musca domestica (setting [1]) and 100% in the experiment with Blattella germanica (setting [2]). For the same compound, in the experiment on Culex pipiens pallens (setting [3]), the pest or weed control at 3.5 ppm was at least 90%.
For `NC(=O)C(Cl)(CCC(F)(F)F)S(=O)(=O)CCC(F)(F)C(F)(F)F` (stereo not drawn) [(94)] the same measures were at least 70%, 100% and at least 90%.
In the case of `COC(=O)C(Cl)(CCC(F)(F)C(F)(F)C(F)(F)F)S(=O)(=O)CCC(F)(F)C(F)(F)F` (stereo not drawn) [(96)], the pest or weed control at 500 ppm in the experiment on Musca domestica (24 h) was at least 70%; in the experiment on Blattella germanica, 100%. In the experiment on Culex pipiens pallens, the pest or weed control at 3.5 ppm is at least 90%.
On the same counts, the results for `NC(=O)C(Cl)(CCC(F)(F)C(F)(F)C(F)(F)F)S(=O)(=O)CCC(F)(F)C(F)(F)F` (stereo not drawn) [(97)] are at least 70%, 100% and at least 90%.
`NC(=O)C(Cl)(CCCCC(F)(F)F)S(=O)(=O)CCC(F)(F)F` (stereo not drawn) [(100)]: the pest or weed control at 500 ppm is at least 70% with Musca domestica (setting [1]) and 100% in the experiment on Blattella germanica (setting [2]). Also, in the experiment on Culex pipiens pallens (setting [3]), the pest or weed control at 3.5 ppm is at least 90%.
For `COC(=O)C(Cl)(CCCC(F)(F)C(F)(F)F)S(=O)(=O)CCC(F)(F)F` (stereo not drawn) [(102)], the figures for the pest or weed control at 500 ppm with Musca domestica (setting [1]) and with Blattella germanica (setting [2]) were at least 70% and 100%, respectively. In addition, the pest or weed control at 3.5 ppm in the experiment on Culex pipiens pallens (setting [3]) was at least 90%.
For `NC(=O)C(Cl)(CCCC(F)(F)C(F)(F)F)S(=O)(=O)CCC(F)(F)F` (stereo not drawn) [(103)] the same measures were at least 70%, 100% and at least 90%.

For the origin of these results see US8017656B2, “Organic sulfur compounds and use thereof” (Sumitomo Chemical Company, Limited, priority 2005, dated 2011).
